36 compounds from ChEMBL document CHEMBL6121062, “Discovery, Optimization, and Preclinical Pharmacology of EP652, a METTL3 Inhibitor with Efficacy in Liquid and Solid Tumor Models” (J Med Chem, 2025) can be followed below.

One series concerns Kasumi 1. The series is described as follows: Antiproliferative activity against human Kasumi 1 cells assessed as inhibition of cell viability incubated for 72 hrs by ATPlite assay. In kind it is functional, cell-based. The following applies: Kasumi 1, 72 h.
The target in the next series is METTL3/METTL14 (Homo sapiens, UniProt Q86U44). The series is described as follows: Displacement of [3H]-SAM from METTL3/METTL14 (unknown origin) using 5'biotinylated-UACACUCGAUCUGGACUAAAGGUGCUC-3' RNA as substrate preincubated for 10 mins followed by substrate/[3H]-SAM addition measured after 90 mins by SPA. In kind it is protein-complex assay.
A short description of series [1]: Lipophilicity, logD of compound in 1-octanol/PBS at pH 7.4 incubated for 24 hrs by HPLC analysis. Format: physicochemical.

METTL3/METTL14, sequence (Q86U44 whole entry): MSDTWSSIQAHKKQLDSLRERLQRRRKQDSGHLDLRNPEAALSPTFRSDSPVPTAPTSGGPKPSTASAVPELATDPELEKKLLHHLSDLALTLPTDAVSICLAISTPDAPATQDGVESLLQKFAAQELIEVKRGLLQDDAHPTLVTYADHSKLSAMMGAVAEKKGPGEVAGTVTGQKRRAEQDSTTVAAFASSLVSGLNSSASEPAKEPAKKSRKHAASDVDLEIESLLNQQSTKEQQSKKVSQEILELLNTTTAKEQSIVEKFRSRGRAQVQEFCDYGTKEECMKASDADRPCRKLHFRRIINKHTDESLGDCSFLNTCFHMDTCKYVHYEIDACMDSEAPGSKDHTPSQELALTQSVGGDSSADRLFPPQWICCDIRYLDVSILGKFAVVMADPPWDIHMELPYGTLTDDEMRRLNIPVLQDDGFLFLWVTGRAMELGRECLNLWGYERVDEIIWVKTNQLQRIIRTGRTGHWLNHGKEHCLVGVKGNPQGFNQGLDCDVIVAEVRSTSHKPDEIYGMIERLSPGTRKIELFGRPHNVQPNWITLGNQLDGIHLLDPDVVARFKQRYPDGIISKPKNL
METTL3/METTL14, sequence (Q9HCE5 whole entry, further chain): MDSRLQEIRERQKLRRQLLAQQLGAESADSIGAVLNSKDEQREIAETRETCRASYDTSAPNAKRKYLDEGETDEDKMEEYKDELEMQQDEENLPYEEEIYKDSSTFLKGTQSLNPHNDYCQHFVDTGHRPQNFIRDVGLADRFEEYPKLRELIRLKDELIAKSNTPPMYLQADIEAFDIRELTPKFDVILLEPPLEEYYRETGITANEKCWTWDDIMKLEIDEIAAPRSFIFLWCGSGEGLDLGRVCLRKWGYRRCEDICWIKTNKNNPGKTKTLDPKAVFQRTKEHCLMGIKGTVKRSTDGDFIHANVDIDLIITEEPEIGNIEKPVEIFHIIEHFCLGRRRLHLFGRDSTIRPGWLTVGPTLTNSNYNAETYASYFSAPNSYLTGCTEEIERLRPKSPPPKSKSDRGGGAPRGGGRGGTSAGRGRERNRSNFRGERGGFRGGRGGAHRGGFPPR

Consider `COc1cc(-c2cn(Cc3ccc(N4CCC[C@@H](NCC(C)C)C4)nn3)nn2)c2cn[nH]c2c1`, for which the IC50 was determined as 1760 nM in the series with Kasumi 1 and 3 nM at METTL3/METTL14. Also, in series [1], the log distribution coefficient (logD) at 24 h was determined as 1.92.
In the same order, the values of `COc1cc(-c2cn(Cc3ccc(N4CCC(NCC5CCC5)CC4)nn3)nn2)c2cn[nH]c2c1` are > 30000 nM, 563 nM and 1.64.
Taken in the same sequence, the figures for `CC(n1cc(-c2cccn3cncc23)nn1)n1ccc(N2CCC[C@@H](NCC3CCC3)C2)cc1=O` (some centres not stated) were 5400 nM, 8 nM and 1.53.
Taken in the same sequence, the figures for `COc1cc(-c2cn(Cc3ccc(N4CCC[C@@H](NCC5CC5)C4)nn3)nn2)c2cn[nH]c2c1` were 1050 nM, 2 nM and 1.63.
On to `CC(n1cc(-c2cncc(C#N)c2)nn1)n1ccc(N2CCC[C@@H](NCC3CCC3)C2)cc1=O` (some centres not stated), for which the IC50 in the series on Kasumi 1 was > 30000 nM. Moreover, in series [1], the logD at 24 h came out at 0.97.
Regarding `COc1cncc(-c2cn(Cc3ccc(N4CC5(CCC5NCC5CCC5)C4)nn3)nn2)c1` (configuration not stated), the IC50 was > 30000 nM in the series on Kasumi 1 and 2300 nM at METTL3/METTL14. Also, the log distribution coefficient (logD) at 24 h in series [1] was 1.54.
Consider `COc1cncc(-c2cn(Cc3ccc(N4CCC[C@@H](CNC5CCC5)C4)nn3)nn2)c1`, for which the half-inhibitory concentration (IC50) is > 30000 nM in the series on Kasumi 1 and 124 nM on METTL3/METTL14. The logD at 24 h in series [1] turned out to be 0.88.
Taken in the same sequence, the figures for `COc1cc(-c2cn(Cc3ccc(N4CCC[C@@H](N)C4)nn3)nn2)c2cn[nH]c2c1` were > 30000 nM, 243 nM and 1.01.
Turning to `COc1cncc(-c2cn(Cc3ccc(N4CC5(CCCC5NCC5CCC5)C4)nn3)nn2)c1` (configuration not stated), the IC50 in the series on Kasumi 1 is > 30000 nM; at METTL3/METTL14 it was 205 nM. This compound returned a logD at 24 h in series [1] of 1.85.
`COc1cc(-c2cn(Cc3ccc(N4CCC[C@@H](NC5CCCC5)C4)nn3)nn2)c2cn[nH]c2c1`: the concentration for half-maximal inhibition (IC50) with Kasumi 1 came to 3430 nM. Moreover, the logD at 24 h in series [1] was 1.88.
As for `COc1cc(-c2cn(Cc3ccc(N4CCC(NCC5CCC5)C4)nn3)nn2)c2cn[nH]c2c1` (configuration not stated), the values for the 50% inhibitory concentration (IC50) in the series with Kasumi 1 and at METTL3/METTL14 were 15300 nM and 235 nM, respectively. In addition, the pH-dependent lipophilicity (logD) at 24 h in series [1] was 1.95.
Take `COc1cccc(-c2cn(C(C)n3ccc(N4CCC[C@@H](NCC5CCC5)C4)cc3=O)nn2)c1` (some centres not stated): the half-maximal inhibitory concentration (IC50) with Kasumi 1 is > 30000 nM. Moreover, in series [1], the logD at 24 h came out at 2.22.
Consider `COc1cncc(-c2cn(Cc3ccc(N4CCC[C@@H](NCC5CCC5)C4)nc3)nn2)c1`, for which the results for the IC50 in the series with Kasumi 1 and on METTL3/METTL14 were 1200 nM and 7 nM, respectively. Besides, in series [1], the logD at 24 h is 1.46.
In the same order, the values of `COc1cncc(-c2cn(C(c3ccc(N4CCC[C@@H](NCC5CCC5)C4)nn3)C(F)(F)F)nn2)c1` (some centres not stated) are 12200 nM, 12 nM and 2.43.
For `COc1cc(-c2cn(Cc3ccc(N4CCC[C@@H](N(C)CC5CCC5)C4)nn3)nn2)c2cn[nH]c2c1`, the IC50 with Kasumi 1 amounted to 3130 nM. This compound came in with a log distribution coefficient (logD) at 24 h in series [1] of 2.59.
Regarding `COc1cncc(-c2cn(Cn3ncc(N4CCC[C@@H](NCC5CCC5)C4)cc3=O)nn2)c1`, the IC50 came to 11800 nM in the series on Kasumi 1 and 26 nM at METTL3/METTL14. Further, the logD at 24 h in series [1] was 1.06.
In the same order, the values of `COc1cncc(-c2nnn(C(C)n3ccc(N4CCC[C@@H](NCC5CCC5)C4)cc3=O)n2)c1` (some centres not stated) are 5500 nM, 13 nM and 1.52.
`COc1cncc(-c2cnn(C(C)n3ccc(N4CCC[C@@H](NCC5CCC5)C4)cc3=O)n2)c1` (some centres not stated): the IC50 with Kasumi 1 and at METTL3/METTL14 was > 30000 nM in each case. This compound also displayed a logD at 24 h in series [1] of 1.84.
Turning to `COc1cc(-c2cn(Cc3ccc(N4CCC[C@@H](NC5CC56CCC6)C4)nn3)nn2)c2cn[nH]c2c1` (some centres not stated), the values for the IC50 with Kasumi 1 and on METTL3/METTL14 were 1100 nM and 4 nM, respectively. In series [1], this compound came in with a logD at 24 h of 3.06.
In the same order, the values of `COc1cncc(-c2cn(Cc3ccc(C4CCCC(NCC5CCC5)C4)nn3)nn2)c1` (configuration not stated) are > 30000 nM, 215 nM and 1.55.
In the same order, the values of `CC(n1cc(-c2cccnc2)nn1)n1ccc(N2CCC[C@@H](NCC3CCC3)C2)cc1=O` (some centres not stated) are 8120 nM, 39 nM and 0.87.
In the same order, the values of `COc1cc(-c2cn(Cc3ccc(N4CCC[C@@H](NC5CCC5)C4)nn3)nn2)c2cn[nH]c2c1` are 2740 nM, 5 nM and 1.71.
As to `COc1cncc(-c2ncn(C(C)n3ccc(N4CCC[C@@H](NCC5CCC5)C4)cc3=O)n2)c1` (some centres not stated), the figures for the IC50 with Kasumi 1 and at METTL3/METTL14 were 1610 nM and 5 nM, respectively. Further, in series [1], the pH-dependent lipophilicity (logD) at 24 h turned out to be 1.37.
As to `COc1cncc(-c2cc(C(C)n3ccc(N4CCC[C@@H](NCC5CCC5)C4)cc3=O)on2)c1` (some centres not stated), the IC50 with Kasumi 1 worked out at 1840 nM; at METTL3/METTL14 it was 7 nM. Moreover, in series [1], the logD at 24 h was found to be 1.63.
For `COc1cncc(-n2cnc(C(C)n3ccc(N4CCC[C@@H](NCC5CCC5)C4)cc3=O)c2)c1` (some centres not stated), the IC50 in the series with Kasumi 1 and on METTL3/METTL14 was > 30000 nM throughout. In series [1], the logD at 24 h is 1.25.
For the compound `COc1cncc(-c2cn(C3(c4ccc(N5CCC[C@@H](NCC6CCC6)C5)nn4)CC3)nn2)c1`, the IC50 in the series with Kasumi 1 was 9880 nM; at METTL3/METTL14, 25 nM. Moreover, in series [1], the logD at 24 h came to 1.7.
`COc1cncc(-c2cn(Cc3ccc(N4CCC[C@@H](NCC5CCC5)C4)cc3)nn2)c1`: the IC50 in the series with Kasumi 1 stood at 875 nM; at METTL3/METTL14, 6 nM. The log distribution coefficient (logD) at 24 h in series [1] was 2.04.
As for `COc1cc(-c2cn(Cc3ccc(N4CCC[C@@H](NC(C)C5CCC5)C4)nn3)nn2)c2cn[nH]c2c1` (some centres not stated), the 50% inhibitory concentration (IC50) in the series on Kasumi 1 worked out at 10100 nM. For the same compound, the logD at 24 h in series [1] is 2.14.
Turning to `COc1cncc(-c2cc(C(C)n3ccc(N4CCC[C@@H](NCC5CCC5)C4)cc3=O)sn2)c1` (some centres not stated), the half-inhibitory concentration (IC50) in the series with Kasumi 1 was 1720 nM; on METTL3/METTL14, 11 nM. In series [1], this compound came in with a log distribution coefficient (logD) at 24 h of 2.26.
In the same order, the values of `COc1ccc(-c2cn(C(C)n3ccc(N4CCC[C@@H](NCC5CCC5)C4)cc3=O)nn2)cn1` (some centres not stated) are > 30000 nM, > 30000 nM and 1.69.
Consider `COc1cncc(-c2cn(Cc3ccc(N4CCCC(NCC5CCC5)C4=O)nn3)nn2)c1` (configuration not stated), for which the IC50 with Kasumi 1 and at METTL3/METTL14 was > 30000 nM throughout. This compound displayed a logD at 24 h in series [1] of 1.15.
In the case of `COc1cncc(-n2cc(C(C)n3ccc(N4CCC[C@@H](NCC5CCC5)C4)cc3=O)nn2)c1` (some centres not stated), the IC50 in the series on Kasumi 1 amounted to 1930 nM; on METTL3/METTL14 it was 7 nM. In series [1], this compound returned a logD at 24 h of 1.12.
Taken in the same sequence, the figures for `COc1cc(-c2cn(Cc3ccc(N4CCC[C@H](NCC5CCC5)C4)nn3)nn2)c2cn[nH]c2c1` were 3400 nM, 24 nM and 1.89.
In the same order, the values of `COc1cncc(-c2cn(Cc3ccc(N4CCCCC(NCC5CCC5)C4)nn3)nn2)c1` (configuration not stated) are > 30000 nM, 50 nM and 1.18.
Regarding `COc1cc(-c2cn(Cc3ccc(N4CCC[C@@H](NC(=O)C5CCC5)C4)nn3)nn2)c2cn[nH]c2c1`, the IC50 with Kasumi 1 was > 30000 nM. Further, the logD at 24 h in series [1] amounted to 2.61.
For the compound `COc1cnnc(-c2cn(C(C)n3ccc(N4CCC[C@@H](NCC5CCC5)C4)cc3=O)nn2)c1` (some centres not stated), the concentration for half-maximal inhibition (IC50) with Kasumi 1 worked out at 5420 nM; at METTL3/METTL14, 5 nM. The same compound gave a logD at 24 h in series [1] of 0.62.
